Positions of bridges follow the written chain, without caps; N, C: chain ends. Non-standard residues stand in square brackets, D forms with d. Residues, ends and D or L forms follow the SMILES beside them. Phe(4-CONH2) = NC(=O)c1ccc(C[C@H](N)C(=O)O)cc1; NHexGly = CCCCCCNCC(=O)O; Sar = CNCC(=O)O
Experiments:
[1] = molecular target: Indolethylamine N-methyltransferase (Homo sapiens, UniProt O95050); assay: Inhibition of N-terminal 6His-tagged full length human recombinant INMT (1 to 263 residues) expressed in Escherichia coli BL21 (DE3) cells using S-(5'-Adenosyl)-L-methionine chloride dihydrochloride and 9H-pyrido[3,4-b]indole as substrate incubated for 2.5 hrs by MTase-Glo assay
[2] = system: HEK293; assay: Cytotoxicity against HEK293 cells assessed as reduction in ATP incubated for 10 mins by CellTiter-Glo luminescence assay; format: toxicity, cell-based; conditions: human, hek293, 10 min
[3] = molecular target: T1, Nicotinamide N-methyltransferase (Homo sapiens, UniProt P40261); assay: Inhibition of N-terminal 6His-tagged full length human recombinant NNMT (1 to 264 residues) expressed in Escherichia coli BL21 (DE3) cells using S-adenosyl-L-methionine and NAM as substrate incubated for 2 hrs by RapidFire Mass Spectrometry
T1 sequence (P40261 whole entry): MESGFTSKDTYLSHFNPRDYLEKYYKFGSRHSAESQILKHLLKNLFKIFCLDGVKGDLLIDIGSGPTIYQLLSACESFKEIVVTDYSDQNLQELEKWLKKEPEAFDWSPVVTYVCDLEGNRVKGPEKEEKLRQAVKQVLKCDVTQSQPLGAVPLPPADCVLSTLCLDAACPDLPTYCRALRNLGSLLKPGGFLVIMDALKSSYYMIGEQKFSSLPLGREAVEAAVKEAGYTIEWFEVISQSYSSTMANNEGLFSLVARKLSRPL

[4] = molecular target: T1, Nicotinamide N-methyltransferase; assay: Inhibition of N-terminal 6His-tagged full length human recombinant NNMT (1 to 264 residues) expressed in Escherichia coli BL21 (DE3) cells using S-adenosyl-L-methionine and NAM as substrate incubated for 22 to 24 hrs by RapidFire Mass Spectrometry
[5] = molecular target: T1, Nicotinamide N-methyltransferase; assay: Inhibition of NNMT in HEK293 cells measured after 20 to 24 hrs by RapidFire Mass Spectrometry; format: cell-based

Sequence of Indolethylamine N-methyltransferase (O95050 whole entry, the tested form may be a part): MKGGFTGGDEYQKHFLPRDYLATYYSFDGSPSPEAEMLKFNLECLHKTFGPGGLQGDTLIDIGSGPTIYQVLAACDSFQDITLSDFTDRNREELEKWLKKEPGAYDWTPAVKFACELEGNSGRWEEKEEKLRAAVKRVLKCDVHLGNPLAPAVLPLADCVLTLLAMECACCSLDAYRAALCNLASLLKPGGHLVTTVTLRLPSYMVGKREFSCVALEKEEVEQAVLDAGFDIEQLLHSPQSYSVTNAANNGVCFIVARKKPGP

Cc1ccc2c(c1)cc([C@H]1C[C@H](n3nc(C)cc3CN)CN1C(=O)c1cnc3[nH]c(C)cc3c1)n2Cc1ccc(Cl)cc1
IC50 [1]: > 100 µM
CC20 [2]: > 10 µM

CCCCCCN(CC(=O)N[C@@H](Cc1c[nH]c2ccccc12)C(N)=O)C(=O)CNC(=O)[C@H](CCCNC(=N)N)NC(C)=O (Ac-RG[NHexGly]W-NH2)
IC50 [3]: > 30 µM

C[C@@H]1NC(=O)CNC(=O)[C@H](CCCNC(=N)N)NC(=O)[C@H](Cc2ccc(C(N)=O)cc2)NC(=O)[C@H](Cc2ccccc2)NC(=O)CSC[C@@H](C(N)=O)NC(=O)[C@@H]2CCCN2C(=O)[C@H](Cc2c[nH]c3ccccc23)NC1=O ({CH2CO}-F[Phe(4-CONH2)]RGAWPC-NH2; thioether N-8)
IC50 [4]: > 100 µM

CN1CC(=O)N[C@@H](Cc2c[nH]c3ccccc23)C(=O)N2CCC[C@H]2C(=O)N[C@H](C(N)=O)CSCC(=O)N[C@@H](Cc2ccccc2)C(=O)N[C@@H](Cc2ccc(C(N)=O)cc2)C(=O)N[C@@H](CCCNC(=N)N)C(=O)NCC1=O ({CH2CO}-F[Phe(4-CONH2)]RG[Sar]WPC-NH2; thioether N-8)
IC50 [4]: > 30 µM

Nc1ncnc2c1ncn2[C@@H]1O[C@H](C[C@@H](N)CC[C@H](N)C(=O)O)[C@@H](O)[C@H]1O [SINEFUNGIN]
IC50 [1]: 4 µM
IC50 [5]: > 100 µM
IC50 [3]: 5.2 µM

CCCCCCN1CC(=O)N[C@@H](Cc2c[nH]c3ccccc23)C(=O)N2CCC[C@H]2C(=O)N[C@H](C(N)=O)CSCC(=O)N[C@@H](Cc2ccccc2)C(=O)N[C@@H](Cc2ccc(C(N)=O)cc2)C(=O)N[C@@H](C)C(=O)NCC1=O ({CH2CO}-F[Phe(4-CONH2)]AG[NHexGly]WPC-NH2; thioether N-8)
IC50 [4]: > 100 µM

Cc1ccc2c(c1)cc([C@H]1C[C@H](n3ccnc3CN)CN1C(=O)c1cnc3[nH]ccc3c1)n2Cc1ccc(Cl)cc1
IC50 [1]: > 100 µM

CCCCCCN1CC(=O)N[C@@H](Cc2c[nH]c3ccccc23)C(=O)N2CCC[C@H]2C(=O)N[C@H](C(=O)NCC(N)=O)CSCC(=O)N[C@@H](Cc2ccccc2)C(=O)N[C@@H](Cc2ccc(C(N)=O)cc2)C(=O)N[C@@H](CCCNC(=N)N)C(=O)NCC1=O ({CH2CO}-F[Phe(4-CONH2)]RG[NHexGly]WPCG-NH2; thioether N-8)
IC50 [1]: > 100 µM

NCc1nccn1[C@H]1C[C@H](c2nc3ccccc3n2Cc2ccccc2)N(C(=O)c2cnc3[nH]ccc3c2)C1
IC50 [1]: > 100 µM

CCCCCCN1CC(=O)N[C@@H](C)C(=O)N2CCC[C@H]2C(=O)N[C@H](C(N)=O)CSCC(=O)N[C@@H](Cc2ccccc2)C(=O)N[C@@H](Cc2ccc(C(N)=O)cc2)C(=O)N[C@@H](CCCNC(=N)N)C(=O)NCC1=O ({CH2CO}-F[Phe(4-CONH2)]RG[NHexGly]APC-NH2; thioether N-8)
IC50 [4]: > 100 µM

Reference: ChEMBL document CHEMBL5137077, “Peptide-to-Small Molecule: A Pharmacophore-Guided Small Molecule Lead Generation Strategy from High-Affinity Macrocyclic Peptides” (J Med Chem, 2022)
